ChEMBL document CHEMBL1201862, “PubChem BioAssay data set” (2004)
Activity calls are given as the source filed them. Rule as the data show it, for most assays here: actives have a measured IC50 and inactives only a lower limit.

What was measured:
Format in all cases: functional
[1] = molecular target: T1, Sentrin-specific protease 6 (Homo sapiens, UniProt Q9GZR1);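 also: Luminescence-based dose-response confirmatory assay of SENP6 inhibition, following up an ultra-high-throughput screen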
T1 sequence (Q9GZR1 whole entry): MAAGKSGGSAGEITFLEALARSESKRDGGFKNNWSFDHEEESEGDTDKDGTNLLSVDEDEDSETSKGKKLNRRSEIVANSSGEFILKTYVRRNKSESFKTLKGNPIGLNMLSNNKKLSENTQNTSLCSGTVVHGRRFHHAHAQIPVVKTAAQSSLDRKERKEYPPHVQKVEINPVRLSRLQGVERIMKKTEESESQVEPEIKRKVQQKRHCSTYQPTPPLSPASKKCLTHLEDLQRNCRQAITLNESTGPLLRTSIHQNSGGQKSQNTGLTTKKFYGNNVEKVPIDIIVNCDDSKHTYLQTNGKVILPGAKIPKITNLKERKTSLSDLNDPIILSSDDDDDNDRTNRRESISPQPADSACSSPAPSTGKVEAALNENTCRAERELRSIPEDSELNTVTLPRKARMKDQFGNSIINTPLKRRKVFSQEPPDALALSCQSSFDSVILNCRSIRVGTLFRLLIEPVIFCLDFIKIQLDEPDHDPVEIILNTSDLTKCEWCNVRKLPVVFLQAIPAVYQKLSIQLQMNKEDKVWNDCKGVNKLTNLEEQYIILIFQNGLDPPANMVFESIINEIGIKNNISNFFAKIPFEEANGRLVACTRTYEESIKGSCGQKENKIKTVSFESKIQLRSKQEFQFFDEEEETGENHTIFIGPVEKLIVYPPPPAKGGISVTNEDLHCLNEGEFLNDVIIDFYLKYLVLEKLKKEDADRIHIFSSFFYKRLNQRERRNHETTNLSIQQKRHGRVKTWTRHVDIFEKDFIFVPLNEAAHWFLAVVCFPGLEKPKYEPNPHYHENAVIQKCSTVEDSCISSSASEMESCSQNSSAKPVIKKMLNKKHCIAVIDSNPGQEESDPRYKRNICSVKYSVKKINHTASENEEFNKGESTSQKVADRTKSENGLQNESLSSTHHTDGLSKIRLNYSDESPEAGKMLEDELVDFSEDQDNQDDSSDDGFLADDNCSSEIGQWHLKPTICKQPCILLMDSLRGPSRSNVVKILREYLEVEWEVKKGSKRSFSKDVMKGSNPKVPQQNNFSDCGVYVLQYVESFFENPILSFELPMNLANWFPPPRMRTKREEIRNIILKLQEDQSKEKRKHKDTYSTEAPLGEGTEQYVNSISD

Caspase-3 = molecular target: T2, Caspase-3 (Homo sapiens, UniProt P42574);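 also: Dose-response selectivity test against caspase-3 for candidate inhibitors of sentrin-specific proteases (SENPs)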
T2 sequence (P42574 whole entry): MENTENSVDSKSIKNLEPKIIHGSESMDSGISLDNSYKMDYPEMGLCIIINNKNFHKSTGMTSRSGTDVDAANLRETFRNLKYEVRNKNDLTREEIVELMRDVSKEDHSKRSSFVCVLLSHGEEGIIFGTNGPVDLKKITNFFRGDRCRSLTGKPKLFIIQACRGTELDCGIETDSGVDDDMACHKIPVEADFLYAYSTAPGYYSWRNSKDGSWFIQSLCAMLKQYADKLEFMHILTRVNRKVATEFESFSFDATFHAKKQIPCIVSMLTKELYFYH

[2] = molecular target: T3, Sentrin-specific protease 8 (Homo sapiens, UniProt Q96LD8);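 also: luminescence read-out of SENP8 inhibition, dose-response confirmation following an ultra-high-throughput screen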
T3 sequence (Q96LD8 whole entry): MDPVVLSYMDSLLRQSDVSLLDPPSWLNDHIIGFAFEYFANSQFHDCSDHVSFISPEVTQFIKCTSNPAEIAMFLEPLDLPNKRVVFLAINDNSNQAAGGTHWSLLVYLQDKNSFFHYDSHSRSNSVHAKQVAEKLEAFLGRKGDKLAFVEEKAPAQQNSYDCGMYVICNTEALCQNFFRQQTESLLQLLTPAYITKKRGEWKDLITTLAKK

[3] = molecular target: T4, Apoptotic protease-activating factor 1 (Homo sapiens, UniProt O14727)
T4 sequence (O14727 whole entry): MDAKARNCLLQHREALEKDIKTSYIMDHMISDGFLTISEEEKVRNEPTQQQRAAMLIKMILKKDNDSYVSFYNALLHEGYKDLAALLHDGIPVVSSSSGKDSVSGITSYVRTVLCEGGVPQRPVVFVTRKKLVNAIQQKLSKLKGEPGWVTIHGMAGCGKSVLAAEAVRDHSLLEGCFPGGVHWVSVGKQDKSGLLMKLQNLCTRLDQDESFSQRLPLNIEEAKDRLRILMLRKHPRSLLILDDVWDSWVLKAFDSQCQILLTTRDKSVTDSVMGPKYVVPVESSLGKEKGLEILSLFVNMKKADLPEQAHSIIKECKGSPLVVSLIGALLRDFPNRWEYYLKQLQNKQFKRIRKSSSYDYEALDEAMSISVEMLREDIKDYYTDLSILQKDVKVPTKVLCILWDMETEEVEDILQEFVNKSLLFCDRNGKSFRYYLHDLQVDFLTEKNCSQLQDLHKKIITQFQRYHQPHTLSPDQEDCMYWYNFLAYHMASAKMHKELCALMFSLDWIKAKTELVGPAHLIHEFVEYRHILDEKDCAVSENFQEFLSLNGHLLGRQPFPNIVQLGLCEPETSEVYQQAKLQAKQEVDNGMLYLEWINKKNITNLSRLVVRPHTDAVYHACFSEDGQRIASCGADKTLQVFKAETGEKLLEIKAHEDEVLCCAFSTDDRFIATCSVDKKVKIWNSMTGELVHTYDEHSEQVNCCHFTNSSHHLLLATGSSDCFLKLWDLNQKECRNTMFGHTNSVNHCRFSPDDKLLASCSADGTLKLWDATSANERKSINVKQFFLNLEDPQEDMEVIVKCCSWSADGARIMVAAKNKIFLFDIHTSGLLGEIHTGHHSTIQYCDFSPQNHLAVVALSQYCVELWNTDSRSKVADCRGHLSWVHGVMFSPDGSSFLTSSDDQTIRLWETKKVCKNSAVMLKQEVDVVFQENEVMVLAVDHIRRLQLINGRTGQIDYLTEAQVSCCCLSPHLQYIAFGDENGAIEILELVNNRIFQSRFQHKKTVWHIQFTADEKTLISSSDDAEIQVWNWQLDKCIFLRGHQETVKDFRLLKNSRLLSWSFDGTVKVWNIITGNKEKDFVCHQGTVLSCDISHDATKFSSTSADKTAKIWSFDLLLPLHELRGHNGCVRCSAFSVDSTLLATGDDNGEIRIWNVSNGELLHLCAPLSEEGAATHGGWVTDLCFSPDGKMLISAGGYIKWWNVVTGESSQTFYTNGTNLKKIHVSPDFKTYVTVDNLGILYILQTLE

[4] = viability loss in THP-1 monocytes – THP-1 cells, cytotoxicity control for Vif-APOBEC3G degradation inhibitor project, dose response (AID 1117359); conditions: THP-1
INS1 = experiment: INS-1E survival protection against cytokine death – cell-based, luminescence, retest, dose response (AID 449756); conditions: Rattus norvegicus;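 also: cell death triggered by IL-1 beta plus TNF-alpha plus IFN-gamma mixture; protective hits raise ATP signal compared with cytokine alone wells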

O=C(/C=C/c1ccco1)Nc1ccc(Oc2ccccc2)cc1
active: IC50 [1] 5.23 µM | IC50 (Caspase-3) 20.5 µM | IC50 [2] 17.4 µM

COc1ccc(S(=O)(=O)Nc2cc(SCC(=O)O)c(O)c3ccccc23)cc1
active: IC50 [3] 31.8 µM | CC50 [4] 5.84 µM | IC50 [1] 3.81 µM | AC50 (INS1) 4.09 µM | IC50 (Caspase-3) 11.2 µM | IC50 [2] 9.39 µM

COC(=O)C(O)(c1c(C)[nH]n(-c2ccccc2)c1=O)C(F)(F)F (configuration not stated)
active: IC50 [3] 14.6 µM

CC1CC(=O)c2c(cc3c(-c4c(O)cc(O)c5c(O)c6c(cc45)OC(C)CC6=O)c(O)cc(O)c3c2O)O1 (configuration not stated) [CEPHALOCHROMIN]
active: CC50 [4] 3.08 µM | AC50 (INS1) 3.39 µM
